Common to all, as to conditions: trans-stimulation, solute 2 mM
The test system of experiment [1] is non-expressing oocytes. It counts as cell-based, Xenopus laevis. In outline: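 Oocytes (ten per treatment, ≥4 independent frogs/days) were preloaded by injecting VF-6 in 25 nL ND96 at pH 5.0, 5.5, 6.0 or 7.0, or Na^+-free choline buffer, then uptake run 1.5 h, 27.5 °C, ND96 pH 5.5 by default. Internal concentrations assumed ~400 nL oocyte volume.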
Experiment [2] addresses PfCRT^Dd2 (Plasmodium falciparum, UniProt Q9N623, A220S/I356T/K76T/M74I/N326S/N75E/Q271E/R371I). The experiment can be described thus: cell-based. It counts as cell-based. In outline: (§1)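 Transport measured in Xenopus oocytes expressing the transporters, 1.5 h at 27.5 °C in ND96 pH 5.5 unless noted. For trans-stimulation, VF-6 injected in 25 nL ND96 at pH 5.0–7.0 or Na^+-free (choline) buffer; intracellular levels based on ~400 nL oocyte volume. Ten oocytes per treatment, ≥4 experiments.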

The target of experiment [3] is PfCRT^3D7 (Plasmodium falciparum, UniProt Q8IBZ9). The experiment can be described thus: cell-based. It counts as cell-based. In outline:
as §1

The target in experiment [4] is PfCRT^Ecu1110 (Plasmodium falciparum, UniProt Q9N623, A220S/I356L/K76T/N326D). Description: cell-based. In kind it is cell-based. In outline:
as §1

Experiment [5] has as its target T1, PfNT1 (Plasmodium falciparum, UniProt Q8IDM6).
T1 construct: expressed in transfected cells; host or cells: Xenopus laevis oocytes (stage V-VI), cRNA-injected
Description: cell-based. It counts as cell-based. The method in brief:
as §1

Like-named read-outs stand apart in the source and are kept apart here.

T1 sequence (Q8IDM6 whole entry): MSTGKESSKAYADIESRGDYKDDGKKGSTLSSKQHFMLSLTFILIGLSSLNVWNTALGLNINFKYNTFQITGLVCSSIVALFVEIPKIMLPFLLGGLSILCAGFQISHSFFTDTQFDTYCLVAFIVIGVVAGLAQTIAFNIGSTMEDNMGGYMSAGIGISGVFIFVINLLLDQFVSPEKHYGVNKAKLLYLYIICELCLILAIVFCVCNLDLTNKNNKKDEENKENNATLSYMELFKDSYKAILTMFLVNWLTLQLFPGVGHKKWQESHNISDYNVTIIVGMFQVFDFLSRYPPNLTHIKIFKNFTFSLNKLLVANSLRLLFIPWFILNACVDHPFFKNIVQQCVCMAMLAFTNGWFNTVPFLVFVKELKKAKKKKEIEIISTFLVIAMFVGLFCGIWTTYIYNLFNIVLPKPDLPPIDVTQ
Sequence of PfCRT^3D7 (Q8IBZ9 59-398): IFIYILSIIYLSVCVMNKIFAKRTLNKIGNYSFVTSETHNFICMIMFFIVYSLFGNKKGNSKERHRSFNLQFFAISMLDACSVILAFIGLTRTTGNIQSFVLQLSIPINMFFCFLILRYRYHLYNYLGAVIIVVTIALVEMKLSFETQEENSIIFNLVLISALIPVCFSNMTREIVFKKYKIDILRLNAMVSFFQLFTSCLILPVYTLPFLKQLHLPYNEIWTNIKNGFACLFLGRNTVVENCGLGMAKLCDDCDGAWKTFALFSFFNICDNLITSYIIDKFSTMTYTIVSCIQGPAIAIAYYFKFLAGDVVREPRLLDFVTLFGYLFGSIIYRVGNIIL
Sequence of PfCRT^Ecu1110 (Q9N623 whole entry A220S/I356L/K76T/N326D): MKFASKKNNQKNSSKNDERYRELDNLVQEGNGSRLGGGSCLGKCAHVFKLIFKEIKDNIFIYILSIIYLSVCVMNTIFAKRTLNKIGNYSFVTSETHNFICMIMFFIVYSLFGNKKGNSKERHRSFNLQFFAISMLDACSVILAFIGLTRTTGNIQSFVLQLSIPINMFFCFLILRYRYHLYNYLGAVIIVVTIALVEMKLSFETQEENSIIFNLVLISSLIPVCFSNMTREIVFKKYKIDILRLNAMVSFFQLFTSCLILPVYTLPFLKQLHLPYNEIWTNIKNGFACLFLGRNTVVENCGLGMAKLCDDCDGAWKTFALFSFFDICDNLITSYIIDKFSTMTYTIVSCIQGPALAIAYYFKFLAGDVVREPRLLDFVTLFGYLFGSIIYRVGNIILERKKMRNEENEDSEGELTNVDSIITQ
Sequence of PfCRT^Dd2 (Q9N623 whole entry A220S/I356T/K76T/M74I/N326S/N75E/Q271E/R371I): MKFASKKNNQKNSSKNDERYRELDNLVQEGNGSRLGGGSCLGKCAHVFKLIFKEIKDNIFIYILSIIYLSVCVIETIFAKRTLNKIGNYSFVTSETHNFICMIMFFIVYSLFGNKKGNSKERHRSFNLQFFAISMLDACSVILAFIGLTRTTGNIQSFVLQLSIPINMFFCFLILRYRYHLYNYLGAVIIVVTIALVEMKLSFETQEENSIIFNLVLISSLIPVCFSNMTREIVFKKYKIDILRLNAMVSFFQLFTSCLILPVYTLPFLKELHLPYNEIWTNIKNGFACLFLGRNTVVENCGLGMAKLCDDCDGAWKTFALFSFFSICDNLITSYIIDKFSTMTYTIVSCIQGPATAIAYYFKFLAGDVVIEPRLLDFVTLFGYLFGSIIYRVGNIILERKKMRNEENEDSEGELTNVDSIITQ

Take DPVN [VF-6-derived peptide]: the “[3H]CQ transport, non-expressing oocytes” value is given as 2.53 % PfCRTDd2 control in experiment [1] (Experiment 1), 2.64 % PfCRTDd2 control in experiment [1] (Experiment 2), 2.41 % PfCRTDd2 control in experiment [1] (Experiment 3) and 2.56 % PfCRTDd2 control in experiment [1] (Experiment 4). Further, the “[3H]CQ transport, PfCRTDd2” value in experiment [2] (Experiment 1) was 100.43 % PfCRTDd2 control; in experiment [2] (Experiment 2), 99.77 % PfCRTDd2 control; in experiment [2] (Experiment 3), 98.92 % PfCRTDd2 control; in experiment [2] (Experiment 4), 101.43 % PfCRTDd2 control. The “[3H]CQ transport, PfCRT3D7” value stood at 12.64 % PfCRTDd2 control in experiment [3] (Experiment 1), 13.46 % PfCRTDd2 control in experiment [3] (Experiment 2), 12.14 % PfCRTDd2 control in experiment [3] (Experiment 3) and 11.36 % PfCRTDd2 control in experiment [3] (Experiment 4). The “[3H]CQ transport, PfCRTEcu1110” value in experiment [4] (Experiment 1) came to 32.63 % PfCRTDd2 control; in experiment [4] (Experiment 2), 30.52 % PfCRTDd2 control; in experiment [4] (Experiment 3) it was 37.36 % PfCRTDd2 control; in experiment [4] (Experiment 4), 30.52 % PfCRTDd2 control. The “[3H]CQ transport, PfNT1” value is listed as 3.52 % PfCRTDd2 control in experiment [5] (Experiment 1), 3.38 % PfCRTDd2 control in experiment [5] (Experiment 2), 3.26 % PfCRTDd2 control in experiment [5] (Experiment 3) and 3.33 % PfCRTDd2 control in experiment [5] (Experiment 4).

For the substance DPVNF [VF-6-derived peptide], the “[3H]CQ transport, non-expressing oocytes” value in experiment [1] (Experiment 1) is 2.53 % PfCRTDd2 control; in experiment [1] (Experiment 2) it was 2.61 % PfCRTDd2 control; in experiment [1] (Experiment 3), 2.41 % PfCRTDd2 control; in experiment [1] (Experiment 4), 2.43 % PfCRTDd2 control. Further, the “[3H]CQ transport, PfCRTDd2” value in experiment [2] (Experiment 1) was 116.36 % PfCRTDd2 control; in experiment [2] (Experiment 2) it was 119.52 % PfCRTDd2 control; in experiment [2] (Experiment 3), 110.63 % PfCRTDd2 control; in experiment [2] (Experiment 4), 125.53 % PfCRTDd2 control. The “[3H]CQ transport, PfCRT3D7” value in experiment [3] (Experiment 1) was determined as 17.63 % PfCRTDd2 control; in experiment [3] (Experiment 2) it was 14.86 % PfCRTDd2 control; in experiment [3] (Experiment 3) it was 18.47 % PfCRTDd2 control; in experiment [3] (Experiment 4) it was 17.33 % PfCRTDd2 control. Also, the “[3H]CQ transport, PfCRTEcu1110” value in experiment [4] (Experiment 1) was 45.52 % PfCRTDd2 control; in experiment [4] (Experiment 2), 43.68 % PfCRTDd2 control; in experiment [4] (Experiment 3) it was 37.35 % PfCRTDd2 control; in experiment [4] (Experiment 4) it was 43.35 % PfCRTDd2 control. In addition, the “[3H]CQ transport, PfNT1” value is reported as 3.85 % PfCRTDd2 control in experiment [5] (Experiment 1), 3.98 % PfCRTDd2 control in experiment [5] (Experiment 2), 3.94 % PfCRTDd2 control in experiment [5] (Experiment 3) and 3.99 % PfCRTDd2 control in experiment [5] (Experiment 4).

PVNF [VF-6-derived peptide]: the “[3H]CQ transport, non-expressing oocytes” value in experiment [1] (Experiment 1) stood at 2.32 % PfCRTDd2 control; in experiment [1] (Experiment 2), 2.21 % PfCRTDd2 control; in experiment [1] (Experiment 3), 2.25 % PfCRTDd2 control; in experiment [1] (Experiment 4), 2.16 % PfCRTDd2 control. Further, the “[3H]CQ transport, PfCRTDd2” value worked out at 115.75 % PfCRTDd2 control in experiment [2] (Experiment 1), 122.53 % PfCRTDd2 control in experiment [2] (Experiment 2), 112.64 % PfCRTDd2 control in experiment [2] (Experiment 3) and 109.74 % PfCRTDd2 control in experiment [2] (Experiment 4). For the same substance, the “[3H]CQ transport, PfCRT3D7” value came out at 16.17 % PfCRTDd2 control in experiment [3] (Experiment 1), 15.91 % PfCRTDd2 control in experiment [3] (Experiment 2), 16.12 % PfCRTDd2 control in experiment [3] (Experiment 3) and 16.15 % PfCRTDd2 control in experiment [3] (Experiment 4). The “[3H]CQ transport, PfCRTEcu1110” value in experiment [4] (Experiment 1) was 47.86 % PfCRTDd2 control; in experiment [4] (Experiment 2), 40.15 % PfCRTDd2 control; in experiment [4] (Experiment 3), 37.75 % PfCRTDd2 control; in experiment [4] (Experiment 4), 41.78 % PfCRTDd2 control. Further, the “[3H]CQ transport, PfNT1” value in experiment [5] (Experiment 1) came out at 3.55 % PfCRTDd2 control; in experiment [5] (Experiment 2), 3.73 % PfCRTDd2 control; in experiment [5] (Experiment 3), 3.85 % PfCRTDd2 control; in experiment [5] (Experiment 4) it was 3.52 % PfCRTDd2 control.

As for VDPVN [VF-6-derived peptide], the “[3H]CQ transport, non-expressing oocytes” value came to 2.84 % PfCRTDd2 control in experiment [1] (Experiment 1), 2.91 % PfCRTDd2 control in experiment [1] (Experiment 2), 2.78 % PfCRTDd2 control in experiment [1] (Experiment 3) and 2.94 % PfCRTDd2 control in experiment [1] (Experiment 4). Also, the “[3H]CQ transport, PfCRTDd2” value in experiment [2] (Experiment 1) is 120.53 % PfCRTDd2 control; in experiment [2] (Experiment 2) it was 112.56 % PfCRTDd2 control; in experiment [2] (Experiment 3) it was 120.67 % PfCRTDd2 control; in experiment [2] (Experiment 4), 119.43 % PfCRTDd2 control. Also, the “[3H]CQ transport, PfCRT3D7” value worked out at 18.56 % PfCRTDd2 control in experiment [3] (Experiment 1), 19.52 % PfCRTDd2 control in experiment [3] (Experiment 2), 15.43 % PfCRTDd2 control in experiment [3] (Experiment 3) and 18.35 % PfCRTDd2 control in experiment [3] (Experiment 4). Besides, the “[3H]CQ transport, PfCRTEcu1110” value in experiment [4] (Experiment 1) was 40.67 % PfCRTDd2 control; in experiment [4] (Experiment 2) it was 44.84 % PfCRTDd2 control; in experiment [4] (Experiment 3), 45.43 % PfCRTDd2 control; in experiment [4] (Experiment 4), 46.24 % PfCRTDd2 control. For the same substance, the “[3H]CQ transport, PfNT1” value in experiment [5] (Experiment 1) was determined as 2.85 % PfCRTDd2 control; in experiment [5] (Experiment 2), 2.88 % PfCRTDd2 control; in experiment [5] (Experiment 3) it was 2.95 % PfCRTDd2 control; in experiment [5] (Experiment 4), 2.89 % PfCRTDd2 control.

The values above are taken from paper PMC7413254 (Nature Communications, 2020).
